Test system: ABCA-1
Test: Measurement of ABCA-1 protein expression (western blot) in liver of treated ZDF rats
Type: in vivo, ZDF (Zucker diabetic fatty) rats
Conditions: treated at 0, 2 and 4 hrs, western blot quantitated by densitometry, normalized to time-point vehicle controls, time-course (FIG. 2)
Procedure: FIG. 2 illustrates the time-course of the effect of treatment on hepatic ABCA1 protein expression in ZDF rats. Rats were treated with a test compound of Formula I at 0, 2 and 4 hrs. […] ABCA1 protein expression was measured by western blot and quantitated by densitometry, Time-point vehicle controls were used to normalize ABCA1 expression at each time-point.
Cellular ABCA-1 protein expression in cells or tissues were quantitated from homogenates prepared from tissue or cells homogenized in a lysis buffer containing protease inhibitors. Lysate proteins were separated by SDS-PAGE and western blotted for ABCA11 and a housekeeping protein. ABCA-1 was detected with a mouse monoclonal antibody that cross-reacts with human, rat and mouse. β-Actin (or other commonly used normalization proteins) were detected with the appropriate commercial antibody. Using the described assay, the effect of treatment on hepatic ABCA1 protein expression in ZDF rats was determined. Rats were treated with a test compound of Formula I at 0, 2 and 4 hrs. […] Time-point vehicle controls were used to normalize ABCA1 expression at each time-point. The test compound of Formula I used in the experiments of FIG. 2 was 2-{6-[((1R,2R)-2-hydroxycyclopentyl)amino]purin-9-yl}(4S,5S,2R,3R)-5-[(2-fluorophenylthio)methyl]oxolane-3,4-diol.

O[C@@H]1[C@H](O)[C@@H](CSc2ccccc2F)O[C@H]1n1cnc2c(N[C@@H]3CCC[C@H]3O)ncnc21 [2-{6-[((1R,2R)-2-hydroxycyclopentyl)amino]purin-9-yl}(4S,5S,2R,3R)-5-[(2-fluorophenylthio)methyl]oxolane-3,4-diol]
hepatic ABCA1 protein expression: increases ABCA-1 protein expression with time
